Assay results as given in patent US6794491B1, “Polypeptides, their production and use” (Takeda Chemical Industries, Ltd., priority 1995, dated 2004).
Entries after “also recorded” stand apart in the source; their conditions may differ. Where no end group is shown, it is not given here.

Columns and labels:
[1] = biological target: T1, full-length receptor protein expressed CHO cells (CHO-19P2); human pituitary receptor protein (hGR3) (Homo sapiens, UniProt P49683); assay: release of arachidonic acid metabolites from CHO-19P2 cells; format: cell-based; conditions: amount of [3H]arachidonic acid metabolites, 10^−12 M-10^−6 M in 0.05% BSA-HBSS
T1 construct: to construct a full-length receptor protein expression plasmid pAKKO-19P2; expressed in transfected cells; host or cells: CHO dhfr- cells transfected with pAKKO-19P2 (CHO-19P2; clone CHO-19P2-9)
T1 sequence (P49683 1-370): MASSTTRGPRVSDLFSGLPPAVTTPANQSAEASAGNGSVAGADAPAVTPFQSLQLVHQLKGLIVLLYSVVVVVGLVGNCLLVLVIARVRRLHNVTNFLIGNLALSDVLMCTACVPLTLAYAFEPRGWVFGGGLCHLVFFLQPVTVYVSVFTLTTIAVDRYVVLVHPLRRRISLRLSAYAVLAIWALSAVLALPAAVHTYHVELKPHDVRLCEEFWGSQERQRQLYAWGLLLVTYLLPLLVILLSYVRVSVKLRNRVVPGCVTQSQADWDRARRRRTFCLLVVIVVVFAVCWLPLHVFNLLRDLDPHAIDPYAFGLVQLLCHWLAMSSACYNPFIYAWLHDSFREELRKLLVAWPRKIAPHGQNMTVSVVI
Description: The full-length receptor protein-expressed CHO cells and mock CHO cells were seeded in a 24-well plate, 0.5×10^5 cells/well, and cultured for 24 hours. Then, [^3H] arachidonic acid was added at a final concentration of 0.25 μCi/well. Sixteen (16) hours after addition of [^3H] arachidonic acid, the cells were rinsed with 0.05% BSA-HBSS and the above-mentioned crude peptide fraction was added, 400 μl/well. The mixture was incubated at 37° C. for 30 minutes and a 300 μl portion of the reaction mixture (400 μl) was added to 4 ml of a scintillator and the amount of [^3H] arachidonic acid metabolite released into the reaction mixture was determined with a scintillation counter.
The activity of the peptide (19P2-L31) synthesized in Example 21 to specifically release arachidonic acid metabolites from CHO-19P2 cells was assayed in the same manner as Example 11. The synthetic peptide was dissolved in degassed dH20 at a concentration of 10^−3M and diluted with 0.05% BSA-HBSS and the activity to promote release of arachidonic acid metabolites from CHO-19P2 cells at each concentration was assayed using the amount of [^3H]arachidonic acid metabolites as the indicator.
The activity of the synthetic equivalent (19P2-L20) of natural peptide P-2 as synthesized in Example 23 to specifically promote release of arachidonic acid metabolites from CHO-19P2 cells was determined as in Example 11. Thus, the synthetic peptide was dissolved in degassed dH2O at a final concentration of 10^−3M and this solution was serially diluted with 0.05% BAS-HBSS. The activity to specifically promote release of arachidonic acid metabolites from CHO-19P2 cells at each concentration was assayed using the amount of [^3H]arachidonic acid metabolites as the indicator.

[2] = reserpine-induced hypothermia in mice; format: in vivo, ICR male mice; conditions: lateral ventricle
Description: The mature ICR male mice (weight at operation: about 35 g) were anesthetized by administration of pentobarbital (50 mg/kg, i.p.), and then fixed on stereotaxic apparatus. The skull of a said mouse was exposed, then a hole was made by dental drill for guide-cannulization into the left lateral ventricle. The tip of a stainless-steel guide-cannula (24 G, length: 5 mm) for drug injection to lateral ventricle, was inserted to the position of AP: +0.6 mm (from bregma), L: left 1 mm and H: −1 mm (from dura matter). The guide-cannula was fixed onto the skull with adhesive. The cannula-implanted mice were housed as described above and were used for measurements of body temperature at least 3 days after the operation. Reserpine (Apoplon; Daiichi Pharmaceutical) was administered to mice at a dose of 3 mg/kg, s.c., and after 15 hours, each mouse was placed in a cage for the measurement. Then a stainless-steel micro-injection cannula (30 G, length: 6 mm) was inserted into the guide-cannula. The micro-injection cannula was connected to a microsyringe pump with Teflon tube, and injection of PBS or a peptide dissolved in PBS lasted for 2 minutes at a speed of 1 μl/min. The micro-injection cannula was withdrawn after over a period of 2 minutes from end of injection, than the temperature in rectum was measured.
The results are expressed as a mean±S.E.M. Student's t test was used to determine the significance of differences between values from the mice treated with a peptide and the PBS-injected controls. For the purpose of this analysis, p<0.05 was assumed to be the minimal level of significance.

[3] = glucose-induced increase in plasma insulin concentration; format: in vivo, Male Wistar rats; conditions: bolus injection in the jugular vein with glucose 86 mg/rat
Description: Male Wistar rats (8-10w) were anesthetized by i.p. injection of pentobarbital (65 mg/kg). Glucose alone (86 mg/rat) or glucose and 19P2-L31 (675 pmol, 2.25 nmol, 6.75 nmol and 67.5 nmol/rat) were administered by bolus injection in the jugular vein. Blood samples were withdrawn from the contralateral vein. Plasma insulin concentration was determined with a radioimnunoassay kit (Amersham).

Substance: Ser-Arg-Ala-His-Gln-His-Ser-Met-Glu-Ile-Arg-Thr-Pro-Asp-Ile-Asn-Pro-Ala-Trp-Tyr-Ala-Gly-Arg-Gly-Ile-Arg-Pro-Val-Gly-Arg-Phe-NH2 (SRAHQHSMEIRTPDINPAWYAGRGIRPVGRF-NH2) [19P2-L31, synthetic ligand polypeptide]
- arachidonic acid metabolite-releasing activity [1]: concentration-dependent arachidonic acid metabolite-releasing activity was detected over the range of 10^−12M-10^−6M; also recorded: found in a concentration-dependent manner
- temperature variation versus PBS-injected control ([2]; 1 nmol, reserpine-treated mice): no statistically significant difference
- body temperature lowered by reserpine ([2]; 10 nmol, mice, 15 hours after reserpine 3 mg/kg s.c., versus PBS): increased significantly
- time of maximum increase of body temperature after administration ([2]; 10 nmol, reserpine-treated mice): 45 min
- glucose-induced increase in plasma insulin concentration (first and second phase) ([3]; 675 pmol/rat): partially inhibited
- glucose-induced increase in plasma insulin concentration (first and second phase) ([3]; 2.25 nmol/rat): partially inhibited
- glucose-induced increase in plasma insulin concentration (first and second phase) ([3]; 6.75 nmol/rat): partially inhibited
- glucose-induced increase in plasma insulin concentration (first and second phase) ([3]; 67.5 nmol/rat): completely inhibited
